Measured values reported in PMC5075806, “SIKs control osteocyte responses to parathyroid hormone” (Nature Communications, 2016).

Legend:
SIK2 = SIK2 (Homo sapiens, UniProt Q9H0K1); assay: DiscoverX competition binding assay with DNA/phage-tagged kinase, qPCR readout, Kd curves
SIK3 = SIK3 (Homo sapiens, UniProt Q9Y2K2); assay: DiscoverX scanEDGE competition binding panel at […] (SIK3 listed as QSK); value in Supplementary Table […]
Sequence of SIK3 (Q9Y2K2 whole entry): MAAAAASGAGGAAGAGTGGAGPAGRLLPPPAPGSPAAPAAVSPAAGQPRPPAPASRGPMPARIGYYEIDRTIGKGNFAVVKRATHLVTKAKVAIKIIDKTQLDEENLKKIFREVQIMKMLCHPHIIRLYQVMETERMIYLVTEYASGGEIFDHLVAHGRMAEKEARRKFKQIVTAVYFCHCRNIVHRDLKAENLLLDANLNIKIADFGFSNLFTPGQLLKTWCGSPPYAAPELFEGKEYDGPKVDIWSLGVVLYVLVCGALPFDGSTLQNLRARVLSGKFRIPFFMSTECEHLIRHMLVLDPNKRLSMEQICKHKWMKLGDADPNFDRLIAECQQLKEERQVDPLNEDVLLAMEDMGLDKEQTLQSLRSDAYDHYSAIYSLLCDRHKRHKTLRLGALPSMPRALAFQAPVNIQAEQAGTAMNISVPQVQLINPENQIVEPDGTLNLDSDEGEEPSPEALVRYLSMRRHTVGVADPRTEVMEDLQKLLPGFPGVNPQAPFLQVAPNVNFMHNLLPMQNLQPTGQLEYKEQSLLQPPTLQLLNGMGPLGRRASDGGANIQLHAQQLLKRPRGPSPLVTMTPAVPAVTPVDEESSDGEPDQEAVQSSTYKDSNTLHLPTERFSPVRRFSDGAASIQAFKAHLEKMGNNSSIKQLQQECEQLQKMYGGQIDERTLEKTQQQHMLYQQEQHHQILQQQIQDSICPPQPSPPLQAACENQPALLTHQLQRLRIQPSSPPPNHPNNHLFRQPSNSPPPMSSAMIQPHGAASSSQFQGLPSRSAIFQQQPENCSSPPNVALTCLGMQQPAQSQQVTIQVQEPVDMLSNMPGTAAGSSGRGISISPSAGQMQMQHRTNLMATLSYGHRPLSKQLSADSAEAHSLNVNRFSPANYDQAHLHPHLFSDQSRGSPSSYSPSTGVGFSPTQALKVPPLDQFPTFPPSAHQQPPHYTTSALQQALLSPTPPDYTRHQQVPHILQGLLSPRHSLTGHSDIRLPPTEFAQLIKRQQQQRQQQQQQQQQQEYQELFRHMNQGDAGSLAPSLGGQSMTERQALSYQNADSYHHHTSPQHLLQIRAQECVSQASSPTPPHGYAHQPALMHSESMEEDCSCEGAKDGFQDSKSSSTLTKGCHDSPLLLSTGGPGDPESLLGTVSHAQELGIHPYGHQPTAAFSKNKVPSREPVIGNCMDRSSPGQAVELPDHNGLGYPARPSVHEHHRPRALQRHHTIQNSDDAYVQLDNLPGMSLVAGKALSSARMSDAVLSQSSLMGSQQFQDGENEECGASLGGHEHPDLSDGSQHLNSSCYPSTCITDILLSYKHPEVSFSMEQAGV

Sequence of SIK2 (Q9H0K1 whole entry): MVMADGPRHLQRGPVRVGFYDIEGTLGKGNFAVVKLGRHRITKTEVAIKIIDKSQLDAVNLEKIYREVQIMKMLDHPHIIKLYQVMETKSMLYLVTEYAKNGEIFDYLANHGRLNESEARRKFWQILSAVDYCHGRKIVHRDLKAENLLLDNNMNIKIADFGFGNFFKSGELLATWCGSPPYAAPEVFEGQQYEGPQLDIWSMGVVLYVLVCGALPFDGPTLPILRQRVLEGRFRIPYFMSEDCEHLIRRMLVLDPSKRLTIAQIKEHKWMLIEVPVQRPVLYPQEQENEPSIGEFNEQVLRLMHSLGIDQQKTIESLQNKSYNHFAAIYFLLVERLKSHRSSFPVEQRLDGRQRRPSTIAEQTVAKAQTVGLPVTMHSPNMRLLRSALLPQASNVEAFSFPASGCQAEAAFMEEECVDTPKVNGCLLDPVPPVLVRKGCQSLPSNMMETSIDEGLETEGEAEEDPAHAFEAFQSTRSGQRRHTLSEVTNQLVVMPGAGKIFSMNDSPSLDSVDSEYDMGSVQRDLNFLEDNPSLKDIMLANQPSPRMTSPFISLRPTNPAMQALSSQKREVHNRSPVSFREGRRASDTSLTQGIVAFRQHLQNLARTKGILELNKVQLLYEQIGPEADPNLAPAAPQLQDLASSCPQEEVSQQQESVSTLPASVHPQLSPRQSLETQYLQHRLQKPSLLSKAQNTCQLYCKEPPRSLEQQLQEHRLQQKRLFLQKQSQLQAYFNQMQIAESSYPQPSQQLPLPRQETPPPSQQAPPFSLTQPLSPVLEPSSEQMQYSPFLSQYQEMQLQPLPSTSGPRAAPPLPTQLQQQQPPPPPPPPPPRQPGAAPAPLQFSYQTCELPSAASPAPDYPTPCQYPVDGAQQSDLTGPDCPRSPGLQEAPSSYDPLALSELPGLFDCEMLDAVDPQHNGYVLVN

- Kd (SIK2): 7.1 nM
SMILES: COc1ccc(N2C(=O)N(c3c(C)cccc3C)Cc3cnc(Nc4ccc(C5CCN(C)CC5)cc4OC)nc32)c(OC)c1 [YKL-05-093]
- DiscoverX scanEDGE competition binding panel at 71 nM (SIK3 listed as QSK); valu (SIK3): both inhibitors potently target SIK3 in addition to SIK2
